Assay results taken from patent publication US8193223B2, “1,2,3-triazole derivatives as sigma receptor inhibitors” (Laboratorios Del Dr. Esteve, S.A., priority 2006, dated 2012).

Molecular target: T1, sigma-1 receptor (Cavia porcellus, UniProt Q60492)
T1 construct: from tissue; host or cells: guinea pig brain membranes
Assay: [3H](+)-pentazocine binding assay for the sigma-1 receptor in guinea pig brain membranes
Conditions: [3H](+)-pentazocine 0.5 nM; for Sigma-1 Inhibition percent (0.01 μM): compound 0.01 μM; for Sigma-1 Inhibition percent (0.1 μM): compound 0.1 μM
Description: Some of the compounds synthesized according to the procedures described above were tested for their activity as sigma-1 inhibitors. The following protocol was followed:
Brain membrane preparation and binding assays for the […] were performed as described (DeHaven-Hudkins et al., 1992) with some modifications. In brief, guinea pig brains were homogenized in 10 vols. (w/v) of Tris-HCl 50 mM 0.32 M sucrose, pH 7.4, with a Kinematica Polytron PT 3000 at 15000 r.p.m. for 30 s. The homogenate was centrifuged at 1000 g for 10 min at 4° C. and the supernatants collected and centrifuged again at 48000 g for 15 min at 4° C. The pellet was resuspended in 10 volumes of Tris-HCl buffer (50 mM, pH 7.4), incubated at 37° C. for 30 min, and centrifuged at 48000 g for 20 min at 4° C. Following this, the pellet was resuspended in fresh Tris-HCl buffer (50 mM, pH 7.4) and stored on ice until use.
Each assay tube contained 10 μL of [^3H](+)-pentazocine (final concentration of 0.5 nM), 900 μL of the tissue suspension to a final assay volume of 1 mL and a final tissue concentration of approximately 30 mg tissue net weight/mL. Non-specific binding was defined by addition of a final concentration of 1 μM haloperidol. All tubes were incubated at 37° C. for 150 min before termination of the reaction by rapid filtration over Schleicher & Schuell GF 3362 glass fibre filters [previously soaked in a solution of 0.5% polyethylenimine for at least 1 h]. Filters were then washed with four times with 4 mL of cold Tris-HCl buffer (50 mM, pH 7.4). Following addition of scintillation cocktail, the samples were allowed to equilibrate overnight. The amount of bound radioactivity was determined by liquid scintillation spectrometry using a Wallac Winspectral 1414 liquid scintillation counter. Protein concentrations were determined by the method of Lowry et al. (1951).

T1 sequence (Q60492 whole entry): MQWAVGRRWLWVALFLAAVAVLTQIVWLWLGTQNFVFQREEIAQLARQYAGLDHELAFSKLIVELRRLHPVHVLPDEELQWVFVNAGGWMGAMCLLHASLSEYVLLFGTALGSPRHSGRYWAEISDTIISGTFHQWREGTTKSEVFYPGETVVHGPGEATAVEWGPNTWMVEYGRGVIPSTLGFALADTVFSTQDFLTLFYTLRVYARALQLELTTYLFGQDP

SMILES	Sigma-1 Inhibition percent (0.01 μM)	Sigma-1 Inhibition percent (0.1 μM)
Cc1nn(CCCN2CCCCC2)nc1-c1ccccc1 [compound 19]	31.2	78.5
Clc1ccc(-c2nn(CCCCN3CCCCC3)nc2-c2ccccc2)cc1 [compound 10]	26.1	59.1
c1ccc(-c2cnn(CCCN3CCCCC3)n2)cc1 [compound 20]	43.6	82.2
Fc1cc(Br)ccc1-c1cnn(CCCN2CCCCC2)n1 [compound 21]	25.8	83.4
Clc1ccc(-c2nn(CCCN3CCCCCC3)nc2-c2ccccc2)cc1 [compound 6]	36.5	52.5
